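Compound exposure: 48 hours, 5 concentrations, 96-well plates. At the GI50, growth is halved. TGI: total growth inhibition.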
Experiments:
Assay in all cases: NCI tumour cell line growth inhibition, 48 h
SF-295 CNS = system: SF-295 CNS
HCT-15 colon = system: HCT-15 colon
TK-10 renal = system: TK-10 renal
UACC-62 melanoma = system: UACC-62 melanoma
HCT-116 colon = system: HCT-116 colon
A498 renal = system: A498 renal
M14 melanoma = system: M14 melanoma
MOLT-4 leukemia = system: MOLT-4 leukemia
ACHN renal = system: ACHN renal
U251 CNS = system: U251 CNS
MALME-3M melanoma = system: MALME-3M melanoma
OVCAR-8 ovarian = system: OVCAR-8 ovarian
CAKI-1 renal = system: CAKI-1 renal
SK-MEL-5 melanoma = system: SK-MEL-5 melanoma
IGROV1 ovarian = system: IGROV1 ovarian
T-47D breast = system: T-47D breast
SW-620 colon = system: SW-620 colon
NCI-H23 lung = system: NCI-H23 lung
COLO 205 colon = system: COLO 205 colon
SNB-19 CNS = system: SNB-19 CNS
K-562 leukemia = system: K-562 leukemia
HT29 colon = system: HT29 colon
MCF7 breast = system: MCF7 breast
LOX IMVI melanoma = system: LOX IMVI melanoma
A549 NSCLC = system: A549 NSCLC
SN12C renal = system: SN12C renal
NCI/ADR-RES ovarian = system: NCI/ADR-RES ovarian
NCI-H522 lung = system: NCI-H522 lung
HS 578T breast = system: HS 578T breast
SNB-75 CNS = system: SNB-75 CNS
HL-60(TB) leukemia = system: HL-60(TB) leukemia
OVCAR-3 ovarian = system: OVCAR-3 ovarian
HCC-2998 colon = system: HCC-2998 colon
SF-539 CNS = system: SF-539 CNS
OVCAR-5 ovarian = system: OVCAR-5 ovarian
NCI-H460 lung = system: NCI-H460 lung
OVCAR-4 ovarian = system: OVCAR-4 ovarian
HOP-92 NSCLC = system: HOP-92 NSCLC
NCI-H226 lung = system: NCI-H226 lung
SF-268 CNS = system: SF-268 CNS
SK-OV-3 ovarian = system: SK-OV-3 ovarian
RPMI-8226 leukemia = system: RPMI-8226 leukemia
SR leukemia = system: SR leukemia
786-0 renal = system: 786-0 renal
UO-31 renal = system: UO-31 renal
CCRF-CEM leukemia = system: CCRF-CEM leukemia
PC-3 prostate = system: PC-3 prostate
BT-549 breast = system: BT-549 breast
SK-MEL-2 melanoma = system: SK-MEL-2 melanoma
KM12 colon = system: KM12 colon
MDA-MB-231 breast = system: MDA-MB-231 breast
HOP-62 NSCLC = system: HOP-62 NSCLC

Compound: Cc1ncc(CCCN(C)C)cc1Nc1ncc2c(n1)-c1ccc(C(F)(F)F)cc1NC(=S)C2
- GI50 (SF-295 CNS): < 10 nM
- TGI (SF-295 CNS): 2700 nM
- GI50 (HCT-15 colon): 38.9 nM
- TGI (HCT-15 colon): 15000 nM
- GI50 (TK-10 renal): 650 nM
- TGI (TK-10 renal): 19800 nM
- GI50 (UACC-62 melanoma): 31.3 nM
- TGI (UACC-62 melanoma): 17900 nM
- GI50 (HCT-116 colon): < 17.6 nM
- TGI (HCT-116 colon): 14400 nM
- GI50 (A498 renal): 21.9 nM
- TGI (A498 renal): 76.9 nM
- GI50 (M14 melanoma): < 16 nM
- TGI (M14 melanoma): 15700 nM
- GI50 (MOLT-4 leukemia): < 15.6 nM
- TGI (MOLT-4 leukemia): 16600 nM
- GI50 (ACHN renal): 89.2 nM
- TGI (ACHN renal): > 53600 nM
- GI50 (U251 CNS): < 19.4 nM
- TGI (U251 CNS): 14000 nM
- GI50 (MALME-3M melanoma): 31.2 nM
- TGI (MALME-3M melanoma): 23600 nM
- GI50 (OVCAR-8 ovarian): < 17.9 nM
- TGI (OVCAR-8 ovarian): 23100 nM
- GI50 (CAKI-1 renal): 77.9 nM
- TGI (CAKI-1 renal): 5540 nM
- GI50 (SK-MEL-5 melanoma): < 28.2 nM
- TGI (SK-MEL-5 melanoma): 4850 nM
- GI50 (IGROV1 ovarian): 430 nM
- TGI (IGROV1 ovarian): 1350 nM
- GI50 (T-47D breast): 814 nM
- TGI (T-47D breast): 33800 nM
- GI50 (SW-620 colon): < 10 nM
- TGI (SW-620 colon): 12300 nM
- GI50 (NCI-H23 lung): < 13.8 nM
- TGI (NCI-H23 lung): 17100 nM
- GI50 (COLO 205 colon): < 11.1 nM
- TGI (COLO 205 colon): < 19.8 nM
- GI50 (SNB-19 CNS): 71.3 nM
- TGI (SNB-19 CNS): 68900 nM
- GI50 (K-562 leukemia): < 16.9 nM
- TGI (K-562 leukemia): > 34000 nM
- GI50 (HT29 colon): < 16.8 nM
- TGI (HT29 colon): 10200 nM
- GI50 (MCF7 breast): < 15.5 nM
- TGI (MCF7 breast): 11200 nM
- GI50 (LOX IMVI melanoma): 27.6 nM
- TGI (LOX IMVI melanoma): 15100 nM
- GI50 (A549 NSCLC): 10.4 nM
- TGI (A549 NSCLC): 11600 nM
- GI50 (SN12C renal): 95.2 nM
- TGI (SN12C renal): 18400 nM
- GI50 (NCI/ADR-RES ovarian): 172 nM
- TGI (NCI/ADR-RES ovarian): > 67700 nM
- GI50 (NCI-H522 lung): < 10 nM
- TGI (NCI-H522 lung): 18100 nM
- GI50 (HS 578T breast): 27.6 nM
- TGI (HS 578T breast): 1140 nM
- GI50 (SNB-75 CNS): 17.3 nM
- TGI (SNB-75 CNS): 975 nM
- GI50 (HL-60(TB) leukemia): < 14.8 nM
- TGI (HL-60(TB) leukemia): 872 nM
- GI50 (OVCAR-3 ovarian): 58.2 nM
- TGI (OVCAR-3 ovarian): 15200 nM
- GI50 (HCC-2998 colon): 13.5 nM
- TGI (HCC-2998 colon): 10300 nM
- GI50 (SF-539 CNS): 31.2 nM
- TGI (SF-539 CNS): 110 nM
- GI50 (OVCAR-5 ovarian): < 23.7 nM
- TGI (OVCAR-5 ovarian): > 51100 nM
- GI50 (NCI-H460 lung): < 17.8 nM
- TGI (NCI-H460 lung): 11900 nM
- GI50 (OVCAR-4 ovarian): 1220 nM
- TGI (OVCAR-4 ovarian): > 100000 nM
- GI50 (HOP-92 NSCLC): 21.6 nM
- TGI (HOP-92 NSCLC): 519 nM
- GI50 (NCI-H226 lung): 659 nM
- TGI (NCI-H226 lung): 15700 nM
- GI50 (SF-268 CNS): < 19.5 nM
- TGI (SF-268 CNS): 13800 nM
- GI50 (SK-OV-3 ovarian): < 15.5 nM
- TGI (SK-OV-3 ovarian): 448 nM
- GI50 (RPMI-8226 leukemia): 43.4 nM
- TGI (RPMI-8226 leukemia): 21100 nM
- GI50 (SR leukemia): < 10 nM
- TGI (SR leukemia): 3350 nM
- GI50 (786-0 renal): 82.5 nM
- TGI (786-0 renal): 21600 nM
- GI50 (UO-31 renal): 494 nM
- TGI (UO-31 renal): 12500 nM
- GI50 (CCRF-CEM leukemia): < 13.4 nM
- TGI (CCRF-CEM leukemia): 10400 nM
- GI50 (PC-3 prostate): < 20.7 nM
- TGI (PC-3 prostate): 24500 nM
- GI50 (BT-549 breast): 768 nM
- TGI (BT-549 breast): 21800 nM
- GI50 (SK-MEL-2 melanoma): 1080 nM
- TGI (SK-MEL-2 melanoma): 6990 nM
- GI50 (KM12 colon): < 13.4 nM
- TGI (KM12 colon): 10900 nM
- GI50 (MDA-MB-231 breast): < 15.3 nM
- TGI (MDA-MB-231 breast): 302 nM
- GI50 (HOP-62 NSCLC): < 15.5 nM
- TGI (HOP-62 NSCLC): 1540 nM
